# Data taken from patent US5061689A, “Zinc bacitracin containing wound dressing” (Bioderm, Inc., priority 1986, dated 1991).
# Columns and labels:
# [1] = test system: deep partial thickness wounds; experiment: 7% bacitracin zinc ointment with and without polyurethane occlusion, healing of deep partial thickness wounds (Example II); assay type: in vivo, white Yorkshire pigs
# Source text: (§1) To test the effect of bacitracin zinc on epidermal resurfacing, approximately 60 rectangular wounds measuring 7 mm wide, 10 mm long, and 0.5 mm deep were made in each of eighteen white Yorkshire pigs in the paravertebral and thoracic areas with a Castroviejo keratome. The electrokeratome was fitted with a razor blade modified so that the cutting edge was reduced to 7 mm. The wounds were separated from one another by at least 15 mm of normal skin.
# (§2) The bacitracin zinc was applied in impregnated foam shortly (within 5 minutes) after wounding on day 0 and once daily thereafter for 7 days. In order to rule out the possibility that wounds made in different anatomical regions heal at different rates the regions used for each treatment group varied for each animal.
# (§3) Two days after wounding and each day thereafter some of the wounds with surrounding normal skin were excised from each treatment group. The excisions were made with a Castroviejo keratome fitted with a 22 mm blade, set to cut at a depth of 0.7 mm. After incubating the specimens in 2N sodium bromide at 37° C. for three hours, the epidermis was separated from the dermis and the epidermal sheet (22 sq mm) was assessed for re-epithelialization as previously described. Briefly, this method is a macroscopic examination of the separated epidermis for defects. Defects are visualized as holes in the separated epidermal sheet or as a lack of epidermal continuum in the area that contain the wound. The wound is considered re-epithelialized if there are no defects in the epidermis and not re-epithelialized if there are one or more defects.
# Further tests were conducted to determine the effect of bacitracin zinc covered with an occlusive film. The wounds in these were treated according to one of four treatment regiments: (1) untreated; (2) polyurethane film; (3) 7% bacitracin zinc ointment, and (4) 7% bacitracin zinc ointment plus polyurethane film. The methodology employed was substantially the same as in Example I.
# epidermal wounds = experiment: Effect of bacitracin zinc impregnated foam dressing on epidermal wound healing (Example I); assay type: in vivo, white Yorkshire pigs; conditions: for HT50 (time in days for 50% of wounds to be completely healed): probit analysis
# Source text: as §1
# On each of the experimental animals, approximately one third of the wounds were assigned to one of three treatment groups: (1) control (no treatment), (2) vehicle alone, (low melting point petrolatum 3.0 g) or (3) bacitracin zinc (either 1%, 2.5%, 5%, 7%, 10% or 20% in 3.0 g). A total of 99 wounds on 3 pigs were treated with each of the varying bacitracin zinc combinations. Vehicle was applied to 594 wounds in 18 animals. The other 594 wounds were the untreated controls.
# as §2, §3
# The time needed for 50% of the wounds in each experimental animal to heal HT50) has been estimated from curves generated by probit analysis of the data presented in Table I. The HT50 values and the relative rate of healing are compared in Table II. Wounds treated with 7% bacitracin zinc healed 46% more rapidly than untreated wounds and 28% faster than wounds treated with the ointment alone. Vehicle treated wounds healed approximately 25% faster than wounds left open to the air.
# [2] = bacitracin zinc as 7% ointment, listed as BAC. ZN
substance,measurement,setting,value
bacitracin zinc,HT50 (time in days for 50% of wounds to be completely healed),[1]; bacitracin zinc as 7% ointment,4.1 days
same,rate of healing COMPARED WITH PU FILM,[1]; bacitracin zinc as 7% ointment,about 4%
same,rate of healing Compared with Untreated,[1]; bacitracin zinc as 7% ointment,about 24%
same,rate of healing COMPARED WITH PU FILM,[1]; [2],+4%
same,rate of healing Compared with Untreated,[1]; [2],+24%
same,% of wounds healed,"[1]; day 2 after wounding, bacitracin zinc as 7% ointment",0%
same,% of wounds healed,"[1]; day 3 after wounding, bacitracin zinc as 7% ointment",19%
same,% of wounds healed,"[1]; day 4 after wounding, bacitracin zinc as 7% ointment",42%
same,% of wounds healed,"[1]; day 5 after wounding, bacitracin zinc as 7% ointment",77%
same,% of wounds healed,"[1]; day 6 after wounding, bacitracin zinc as 7% ointment",92%
same,% of wounds healed,"[1]; day 7 after wounding, bacitracin zinc as 7% ointment",100%
same,further enhancement in the rate of healing over bacitracin zinc used alone,[1]; semipermeable occlusive film applied over the bacitracin zinc impregnated pad,20%
same,rate of healing Compared with Untreated,epidermal wounds; 1% bacitracin zinc,+23%
same,rate of healing Compared with Vehicle,epidermal wounds; 1% bacitracin zinc,0%
same,% of wounds healed,"epidermal wounds; 1% bacitracin zinc in impregnated foam, day 2 after wounding",0%
same,% of wounds healed,"epidermal wounds; 1% bacitracin zinc in impregnated foam, day 3 after wounding",0%
same,% of wounds healed,"epidermal wounds; 1% bacitracin zinc in impregnated foam, day 4 after wounding",40%
same,% of wounds healed,"epidermal wounds; 1% bacitracin zinc in impregnated foam, day 5 after wounding",58%
same,% of wounds healed,"epidermal wounds; 1% bacitracin zinc in impregnated foam, day 6 after wounding",95%
same,% of wounds healed,"epidermal wounds; 1% bacitracin zinc in impregnated foam, day 7 after wounding",100%
same,HT50 (time in days for 50% of wounds to be completely healed),epidermal wounds; 1% bacitracin zinc,4.5 days
same,rate of healing Compared with Untreated,epidermal wounds; 2.5% bacitracin zinc,+25%
same,rate of healing Compared with Vehicle,epidermal wounds; 2.5% bacitracin zinc,2%
same,% of wounds healed,"epidermal wounds; 2.5% bacitracin zinc in impregnated foam, day 2 after wounding",0%
same,% of wounds healed,"epidermal wounds; 2.5% bacitracin zinc in impregnated foam, day 3 after wounding",0%
same,% of wounds healed,"epidermal wounds; 2.5% bacitracin zinc in impregnated foam, day 4 after wounding",36%
same,% of wounds healed,"epidermal wounds; 2.5% bacitracin zinc in impregnated foam, day 5 after wounding",60%
same,% of wounds healed,"epidermal wounds; 2.5% bacitracin zinc in impregnated foam, day 6 after wounding",96%
same,% of wounds healed,"epidermal wounds; 2.5% bacitracin zinc in impregnated foam, day 7 after wounding",100%
same,HT50 (time in days for 50% of wounds to be completely healed),epidermal wounds; 2.5% bacitracin zinc,4.4 days
same,rate of healing Compared with Untreated,epidermal wounds; 5.0% bacitracin zinc,+34%
same,rate of healing Compared with Vehicle,epidermal wounds; 5.0% bacitracin zinc,13%
same,% of wounds healed,"epidermal wounds; 5.0% bacitracin zinc in impregnated foam, day 2 after wounding",0%
same,% of wounds healed,"epidermal wounds; 5.0% bacitracin zinc in impregnated foam, day 3 after wounding",11%
same,% of wounds healed,"epidermal wounds; 5.0% bacitracin zinc in impregnated foam, day 4 after wounding",54%
same,% of wounds healed,"epidermal wounds; 5.0% bacitracin zinc in impregnated foam, day 5 after wounding",77%
same,% of wounds healed,"epidermal wounds; 5.0% bacitracin zinc in impregnated foam, day 6 after wounding",95%
same,% of wounds healed,"epidermal wounds; 5.0% bacitracin zinc in impregnated foam, day 7 after wounding",100%
same,HT50 (time in days for 50% of wounds to be completely healed),epidermal wounds; 5.0% bacitracin zinc,3.9 days
same,rate of wound re-epithelialization compared with both untreated and vehicle treated wounds,epidermal wounds; 7% bacitracin zinc,significantly greater
same,rate of healing Compared with Untreated,epidermal wounds; 7.0% bacitracin zinc,+46%
same,rate of healing Compared with Vehicle,epidermal wounds; 7.0% bacitracin zinc,28%
same,% of wounds healed,"epidermal wounds; 7.0% bacitracin zinc in impregnated foam, day 2 after wounding",0%
same,% of wounds healed,"epidermal wounds; 7.0% bacitracin zinc in impregnated foam, day 3 after wounding",36%
same,% of wounds healed,"epidermal wounds; 7.0% bacitracin zinc in impregnated foam, day 4 after wounding",70%
same,% of wounds healed,"epidermal wounds; 7.0% bacitracin zinc in impregnated foam, day 5 after wounding",98%
same,% of wounds healed,"epidermal wounds; 7.0% bacitracin zinc in impregnated foam, day 6 after wounding",100%
same,% of wounds healed,"epidermal wounds; 7.0% bacitracin zinc in impregnated foam, day 7 after wounding",100%
same,rate of healing Compared with Untreated,"epidermal wounds; 7.0% bacitracin zinc, listed as bacitracin zinc",46%
same,HT50 (time in days for 50% of wounds to be completely healed),epidermal wounds; 7.0% bacitracin zinc,3.2 days
same,rate of healing Compared with Untreated,epidermal wounds; 10.0% bacitracin zinc,+19%
same,rate of healing Compared with Vehicle,epidermal wounds; 10.0% bacitracin zinc,-6%
same,% of wounds healed,"epidermal wounds; 10.0% bacitracin zinc in impregnated foam, day 2 after wounding",0%
same,% of wounds healed,"epidermal wounds; 10.0% bacitracin zinc in impregnated foam, day 3 after wounding",2%
same,% of wounds healed,"epidermal wounds; 10.0% bacitracin zinc in impregnated foam, day 4 after wounding",33%
same,% of wounds healed,"epidermal wounds; 10.0% bacitracin zinc in impregnated foam, day 5 after wounding",66%
same,% of wounds healed,"epidermal wounds; 10.0% bacitracin zinc in impregnated foam, day 6 after wounding",92%
same,% of wounds healed,"epidermal wounds; 10.0% bacitracin zinc in impregnated foam, day 7 after wounding",100%
same,HT50 (time in days for 50% of wounds to be completely healed),epidermal wounds; 10.0% bacitracin zinc,4.8 days
same,rate of healing Compared with Untreated,epidermal wounds; 20.0% bacitracin zinc,+19%
same,rate of healing Compared with Vehicle,epidermal wounds; 20.0% bacitracin zinc,-6%
same,% of wounds healed,"epidermal wounds; 20.0% bacitracin zinc in impregnated foam, day 2 after wounding",0%
same,% of wounds healed,"epidermal wounds; 20.0% bacitracin zinc in impregnated foam, day 3 after wounding",0%
same,% of wounds healed,"epidermal wounds; 20.0% bacitracin zinc in impregnated foam, day 4 after wounding",42%
same,% of wounds healed,"epidermal wounds; 20.0% bacitracin zinc in impregnated foam, day 5 after wounding",58%
same,% of wounds healed,"epidermal wounds; 20.0% bacitracin zinc in impregnated foam, day 6 after wounding",96%
same,% of wounds healed,"epidermal wounds; 20.0% bacitracin zinc in impregnated foam, day 7 after wounding",100%
same,HT50 (time in days for 50% of wounds to be completely healed),epidermal wounds; 20.0% bacitracin zinc,4.8 days
same,effect on healing,epidermal wounds; levels higher than 5% to 8% bacitracin zinc,tend in inhibit rather than promote healing
same,rate of wound re-epithelialization compared with ointment vehicle treated wounds,"epidermal wounds; the other concentrations of bacitracin zinc (1%, 2.5%, 5%, 10%, 20%)",no significant difference
